Assay [1] has as its system Balb/C female mice. Nature of the assay: Hematopoietic recovery after cyclophosphamide in mice (spleen weight, blood cell counts). Format: in vivo, mouse.
The test system of assay [2] is Normal Balb/C female mice. The assay can be described thus: Hematopoiesis in normal mice. Format: in vivo, mouse. The note with it: Ex 56: fifth day. How it is done: Normal, otherwise untreated, female Balb/C mice weighing approximately 20 grams each received a total of 4 or 9 0.4 ml intraperitoneal injections (one per day) of either Tween-80 (0.2%) (controls), palmitoylguanosine ([…]), or palmitoyldeoxyinosine ([…]). Twenty-four hours after the 4th or 9th treatment, groups of 5 or 6 animals from each of the 3 groups were bled and then sacrificed by cervical dislocation. Spleens were removed and weighed, and complete blood cell counts performed.
Normal Balb/C female mice weighing approximately 20 grams each were given a daily 0.4 ml i.p. injection of either physiological saline (controls), palmitoylguanosine (2.6 μmoles/mouse), palmitoyldeoxyguanosine (2.6 μmoles/mouse), monopalmitoylguanosine 2′,3′-acyclic dialcohol (2.6 μmoles/mouse), and palmitoyl-8-bromoguanosine (2.6 μmoles/mouse) for 4 days. On the fifth day all 3 animals in each of the 5 groups were bled and then sacrificed by cervical dislocation. Spleens were removed and weighed, and complete blood cell counts performed. Femoral bone marrow from each mouse was collected and a differential cell count performed on marrow smears.

Assay [3] deals with Balb/C female mice. The assay can be described thus: Hematopoietic recovery after 5-fluorouracil in mice. In kind it is in vivo, mouse. How it is done:
5-fluorouracil (5-FU) (150 mg/kg, i.p.) was administered to forty Balb/C female mice weighing approximately 20 grams each. Twenty-four hours later and each day thereafter for a total of 8 days, mice were given a 0.4 ml i.p. injection of either physiological saline (controls) or 5′-O-palmitoylguanosine (2.5 μmoles/mouse/day in 0.2% Tween 80). On days 7 and 14 following 5-FU administration half of the animals from each group were bled and then were sacrificed by cervical dislocation. Spleens were removed and weighed, and complete blood cells counts performed.
5-fluorouracil (5-FU) (150 mg/kg, i.p.) was administered to fifty-four Balb/C female mice weighing approximately 20 grams each. Twenty-four hours later and each day thereafter for a total of 7 days, mice were given a 0.4 ml i.p. injection of either physiological saline (controls) or palmitoylguanosine (2.5 μmoles/mouse/day in 0.2% Tween 80). On days 8, 10 and 12 following administration of 5-FU nine animals from each group were bled and then sacrificed by cervical dislocation. Spleens were removed and weighed, and complete blood cell counts performed.
Twenty-eight female Balb/C mice weighing approximately 20 grams each received a 0.4 ml i.p. injection of either physiological saline (controls), or palmitoyldeoxyguanosine (1 μmole/mouse) daily for three days. On the fourth day 5-fluorouracil (5-FU) (150 mg/kg, i.p.) was administered to all 28 of the animals. On days 5, 8 and 11 following 5-FU administration 4 (day 5) or 5 (days 8 and 11) animals from both groups were bled and then sacrificed by cervical dislocation. Spleens were removed and weighed, and complete blood cell counts performed. […]
Sixty female Balb/C mice weighing approximately 20 grams each were distributed into one of five treatment groups and treated once daily for three days by i.p. injection with 3′,5′-O—N^2-tripalmitoyl-2′-deoxyguanosine at a dose of either 1, 5, 10, 25, or 50 mg/kg/treatment in a Tween-DMSO vehicle (0.2% Tween-80 and 7.5% DMSO in physiological saline). Injection volume was 0.4 ml. An additional twelve animals (controls) received vehicle alone on those three days. On the fourth day all seventy-two animals received a single i.p. injection of 5-fluorouracil (5-FU) at a dose of 150 mg/kg. On days 7 and 10 following 5-FU administration six mice from each group were bled and then sacrificed by cervical dislocation. Six untreated mice were also bled and sacrificed to provide data on normal (basal) values. Spleens were removed and weighed, and complete blood cell counts performed.

For the next assay, the system named is F344 male rats. Nature of the assay: Recovery of blood cell counts in rats after cyclophosphamide. Format: in vivo, rat. How it is done:
Cyclophosphamide (CP) (40 mg/kg, i.p.) was administered to 16 F344 male rats weighing approximately 200 grams each. Twenty-four hours later and each day thereafter rats were given a 0.5 ml i.p. injection of either physiological saline (controls), or palmitoyldeoxyguanosine at a dose of 10 μmoles/rat. On days 5, 7 and 10 following CP administration all 8 animals from both groups were bled and complete blood cell counts performed. On day 10 all of the rats were sacrificed and their spleens removed and weighed.

Assay [4] deals with rabbits treated with cyclophosphamide. The note with it: rabbit, in vivo; cited from earlier work.
Assay [5] relates to human myeloid leukemia cell line (HL-60). Particulars: incubation of HL-60 cells; cited from earlier work.
In assay [6] the test system is mouse bone marrow cells in culture. Particulars: under stimulatory influence of serum from endotoxin-treated mice; cited from earlier work.
The test system of assay [7] is Balb/C female mice. The assay can be described thus: Hematopoietic recovery after cyclophosphamide in mice (spleen weight, blood cell counts). Particulars: for Neutrophils / peripheral total white blood cells: Ex 37: day 7 after CP, 5 μmoles/mouse/day i.p. 6 days, vs saline. In kind it is in vivo, mouse. How it is done:
Twenty-four hours later and each day thereafter for a total of 6 days, mice were given a 0.4 ml i.p. injection of either physiological saline (controls), guanine (5 μmoles/mouse/day), or guanosine (5 μmoles/mouse/day). On day 7 all 10 mice in each of the three groups were bled, and then sacrificed by cervical dislocation. Spleens were removed and weighed, and complete blood cell counts performed.
Twenty-four hours later and each day thereafter for a total of 6 days, mice were given a 0.4 ml i.p injection of either physiological saline (controls), Tween 80 (0.2%), guanosine (5 μmoles/mouse/day in 0.2% Tween 80), or 2.5 μmoles per mouse per day of one of the following acylated derivatives of guanosine in 0.2% Tween 80: triacetylguanosine, octanoylguanosine, lauroylguanosine, or palmitoylguanosine. On day 7 following CP administration all 10 animals from each of the 7 groups were bled, and then sacrificed by cervical dislocation. Spleens were removed and weighed, and complete blood counts performed.
Twenty-four hours later treatment was begun. Mice were given a 0.4 ml i.p. injection of either physiological saline (controls), Tween 80 (0.2%), or palmitoylguanosine (5 μmoles/mouse/day in 0.2% Tween 80). The timing of the treatments was varied within the groups. The control group was given saline on days 1-6. The mice receiving Tween 80 were treated either on days 1-4, 4-6 or 1-6. Palmitoylguanosine-treated mice were treated either on days 1-2, 1-4, 3-5, 4-6 or 1-6. If a group of mice received no Tween 80 or palmitoylguanosine on a given day, saline was administered by i.p. injection. Thus, there were 9 groups of 9 animals in all. On day 7 following CP administration all of the animals were bled and then sacrificed by cervical dislocation. Spleens were removed and weighed, and complete blood cell counts performed.
Twenty-four hours later and each day thereafter for a total of 6 days, mice were given a 0.4 ml i.p. injection of either physiological saline (controls), Tween 80 (0.5%), or one of three different doses of octanoylguanosine (0.5, 2.5, or 5 μmoles/mouse/day in 0.5% Tween 80). On day 7 following CP administration all 9 animals from each of the […] were bled and then sacrificed by cervical dislocation. Spleens were removed and weighed, and complete blood cell counts performed.
Twenty-four hours later and each day thereafter for a total of 6 days, mice were given a 0.4 ml i.p. injection of either physiological saline (controls), Tween 80 (0.5%), or octanoylguanosine (5.0 μmoles/mouse/day in 0.5% Tween 80). On day 7 following CP administration all 10 animals from each of the 3 groups were bled and then sacrificed by cervical dislocation. Spleens were removed, weighed, and fixed in 10% formalin for later histological examination. Complete blood cell counts were performed on the collected blood.
Twenty-four hours later and each day thereafter for a total of 6 days, mice were given a 0.4 ml i.p. injection of either physiological saline (controls), benzoylguanosine (2.5 μmoles/mouse/day in 0.2% Tween 80), or palmitoylguanosine (2.5 μmoles/mouse/day in 0.2% Tween 80). On days 7 and 10 following CP administration 8 animals from each of the 3 groups were bled and then were sacrificed by cervical dislocation. Spleens were removed and weighed, and complete blood cell counts performed.
Twenty four hours later and each day thereafter for a total of 4 or 6 days, mice were given a 0.4 ml i.p. injection of either physiological saline (controls), palmitoyldeoxyinosine (2.5 μmoles/mouse), or palmitoyl-xanthosine (2.5 μmoles/mouse). On days 5 and 7 following CP administration 6 of the 12 animals in each of the 3 groups were bled and then sacrificed by cervical dislocation. Spleens were removed and weighed, and complete blood cell counts performed.

Setting [8] is: Ex 51: day 5 after CP, 2 μmoles/mouse.
Setting [9] is: Ex 52: days 5 and 7 after CP, 0.2-2.0 μmoles/mouse, except 0.2 on day 5.
[10] abbreviates: Ex 53: day 5 after CP, palmitoylguanosine 2.0, palmitoyldeoxyguanosine 1.0 μmoles/mouse.
Setting [11] is: Ex 53: day 7 after CP, palmitoylguanosine 1.0 and 2.0, palmitoyldeoxyguanosine 1.0 μmoles/mouse.
[12] abbreviates: Ex 57: day 8 after 5-FU, pretreatment.
The mark [13] stands for this setting: Ex 57: day 11 after 5-FU, pretreatment.
Where [14] appears, read: Ex 37: day 7 after CP 275 mg/kg i.p., 5 μmoles/mouse/day i.p. 6 days, vs saline.

These results are taken from patent US7307166B1, “Oxpurine nucleosides and their congeners, and acyl, derivatives thereof, for improvement of hematopoiesis” (Wellstat Therapeutics Corporation, priority 1987, dated 2007).

As for “Palmitoyl-2′-Deoxyguanosine [palmitoyldeoxyguanosine]”, the total neutrophil counts entry in the assay with Balb/C female mice [1] (setting [8]) was “significantly elevated”; in the assay with Balb/C female mice [1] (setting [9]), “significantly elevated”; in the assay on Balb/C female mice [1] (setting [10]) it was “significantly elevated”; with Balb/C female mice [1] (setting [11]) it was “significantly elevated”; with Balb/C female mice [1] (Ex 54: days 5 and 7 after CP, all 6 doses 0.04-0.8 μmoles/mouse), “significantly elevated”; in the assay on Balb/C female mice [3] (setting [12]) it was “significantly higher”. In addition, the total neutrophil counts entry in the assay on Balb/C female mice [3] (setting [13]) was “significantly higher”; in the assay with F344 male rats (days 5, 7 and 10 after CP, 10 μmoles/rat) it was “significantly elevated”. Further, the “white blood cell counts” value is listed as “significantly elevated” in the assay with Balb/C female mice [1] (setting [8]); “significantly elevated” with Balb/C female mice [1] (setting [9]); “significantly elevated” with Balb/C female mice [1] (setting [10]); “significantly elevated” with Balb/C female mice [1] (setting [11]); “significantly elevated” in the assay on Balb/C female mice [1] (Ex 54: day 5 after CP, doses of 0.4 μmoles/mouse or greater); “statistically significant differences” in the assay on Balb/C female mice [1] (Ex 54: day 7 after CP, all doses 0.04-0.8 μmoles/mouse). Further, the “white blood cell counts” value in the assay on F344 male rats (days 5, 7 and 10 after CP 40 mg/kg, 10 μmoles/rat i.p. daily) is on record as “significantly elevated”. Moreover, the spleen weight result with Balb/C female mice [1] (Ex 51: day 5 after CP, 2 μmoles/mouse i.p. daily, vs Tween-80) was “significantly elevated”; with Balb/C female mice [1] (Ex 52: days 5 and 7 after CP, 0.2, 0.4, 1.0, 2.0 μmoles/mouse, except 0.2 on day 5) it was “significantly elevated”; in the assay with Balb/C female mice [1] (setting [10]), “significantly elevated”; in the assay with Balb/C female mice [1] (setting [11]), “significantly elevated”; in the assay on Balb/C female mice [1] (Ex 54: day 5 after CP, doses of 0.2 μmoles/mouse or greater), “significantly elevated”; in the assay on Balb/C female mice [1] (Ex 54: day 7 after CP, all doses except 0.04 μmoles/mouse), “significantly elevated”. Moreover, the spleen weight result is “significantly elevated” in assay [2] (2.6 μmoles/mouse i.p. daily 4 days); “significantly higher” in the assay with Balb/C female mice [3] (Ex 57: day 8 after 5-FU, pretreatment 1 μmole/mouse); “significantly elevated” in the assay with F344 male rats (day 10 after CP, 10 μmoles/rat). The “potency in elevating spleen weight and cell counts vs palmitoylguanosine” value with Balb/C female mice [1] (Ex 53: vs the same or a 2-fold greater dose of palmitoylguanosine) is recorded as “more potent”. Besides, in assay [2] (2.6 μmoles/mouse daily 4 days), the “number of myelocytes (femoral bone marrow)” value is reported as “significantly greater”. Moreover, the platelet counts result in the assay with Balb/C female mice [3] (Ex 57: day 5 after 5-FU, pretreatment 1 μmole/mouse i.p. daily 3 days) is “significantly elevated”; in the assay with Balb/C female mice [3] (setting [12]) it was “significantly higher”; with Balb/C female mice [3] (setting [13]) it was “significantly higher”. Moreover, in the assay with Balb/C female mice [3] (setting [13]), the lymphocyte counts result was “significantly higher”. Also, in the assay on Balb/C female mice [3] (setting [13]), the spleen weights result was “significantly higher”. In the assay on Balb/C female mice [3] (setting [13]), the “total white blood cell counts” value is on record as “significantly higher”. For the same molecule, in the assay on F344 male rats (day 10 after CP, 10 μmoles/rat), the Lymphocytes result was “significantly elevated”. Also, the Platelets result with F344 male rats (day 10 after CP, 10 μmoles/rat) is “significantly elevated”.
Regarding polyadenosine monophosphate, the leukocyte formation result in assay [4] is listed as “failed to stimulate”.
In the case of `OC[C@H]1O[C@@H](n2cnc3c(O)ncnc32)[C@H](O)[C@@H]1O` [inosine, reference compound], in assay [5], the “induced maturation into functional neutrophils” value is recorded as “no effect”.
For `Nc1nc2c(ncn2[C@@H]2O[C@@H]3COP(=O)(O)O[C@H]3[C@H]2O)c(=O)[nH]1` [cGMP, 3′,5′-cyclic guanosine monophosphate], the “number of colonies formed” value in assay [6] was “increase”.
Regarding `Nc1nc2c(ncn2[C@@H]2O[C@H](CO)[C@@H](O)[C@H]2O)c(=O)[nH]1` [guanosine], the spleen weight entry in the assay on Balb/C female mice [1] (setting [14]) is on record as “significantly heavier spleens”. Moreover, in assay [5], the “induced maturation into functional neutrophils” value is given as “prevented”. Also, in the assay with Balb/C female mice [7], the Neutrophils entry was “significantly more” and the “peripheral total white blood cells” value is “significantly more”. Also, the spleen weight result in the assay with Balb/C female mice [7] (Ex 38: day 7 after CP, guanosine 5, acyl derivatives 2.5 μmoles/mouse/day in 0.2% Tween 80 i.p. 6 days, Tween 80 0.2%) was “No significant difference”.
For the molecule `Nc1nc2c(ncn2[C@@H]2O[C@H](COP(=O)(O)O)[C@@H](O)[C@H]2O)c(=O)[nH]1` [5′-guanosine monophosphate], in assay [6], the “number of colonies formed” value is “inactive”.
For the molecule `Nc1nc2nc[nH]c2c(=O)[nH]1` [guanine], the spleen weight result with Balb/C female mice [1] (setting [14]) is “significantly heavier spleens”. Further, the “induced maturation into functional neutrophils” value in assay [5] was “prevented”. Further, in the assay on Balb/C female mice [7], the Neutrophils result is given as “significantly more” and the “peripheral total white blood cells” value was “significantly more”.
